We go through two compounds from paper PMC2662379 (Biochemistry, 2008).

The target of assay [1] is NPP (Xanthomonas axonopodis nucleotide phosphodiesterase/pyrophosphatase) (Xanthomonas citri, UniProt A0A0U5FM15). Briefly: inhibition of MepNPP hydrolysis, absorbance of 4-nitrophenolate at […] nm. The format is biochemical.
Assay [2] deals with alkaline phosphatase (AP) (Escherichia coli, UniProt P00634, R188S). Briefly: steady-state hydrolysis kinetics. The format is biochemical.
Sequence of alkaline phosphatase (AP) (P00634 23-471 R188S): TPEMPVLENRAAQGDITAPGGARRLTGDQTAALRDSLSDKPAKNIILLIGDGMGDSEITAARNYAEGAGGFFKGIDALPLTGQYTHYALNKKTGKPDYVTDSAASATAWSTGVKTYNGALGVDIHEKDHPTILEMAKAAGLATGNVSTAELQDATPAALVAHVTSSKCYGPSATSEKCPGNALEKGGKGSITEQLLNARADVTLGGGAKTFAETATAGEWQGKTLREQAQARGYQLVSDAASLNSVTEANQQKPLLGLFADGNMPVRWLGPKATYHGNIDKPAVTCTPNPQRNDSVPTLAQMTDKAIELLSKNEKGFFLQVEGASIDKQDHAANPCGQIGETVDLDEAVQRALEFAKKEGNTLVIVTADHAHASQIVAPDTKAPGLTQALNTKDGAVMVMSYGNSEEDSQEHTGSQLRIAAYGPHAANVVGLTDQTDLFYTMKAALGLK

With `Nc1ncnc2c1ncn2[C@@H]1O[C@H](COP(=O)(O)O)[C@@H](O)[C@H]1O` [AMP, adenosine monophosphate], in assay [1], the Ki (commonly a dissociation constant, usually derived from enzyme kinetics or from competition with a known ligand) was 318 ± 24 µM. Take `COP(O)(=S)Oc1ccc([N+](=O)[O-])cc1` (racemic) [MepNPPS, methyl p-nitrophenyl phosphorothioate]: the specificity constant (kcat/KM) (in general, the turnover number divided by the Michaelis constant) in assay [2] is 0.0011 M⁻¹ s⁻¹.
